Source: patent US20050148034A1, “Methods for identification of modulators of angiogenesis, compounds discovered thereby, and methods of treatment using the compounds” (priority 2002, published 2005)

Key:
[1] = tested on: embryonic-like stem cells derived from placenta; assay: Marker expression of cultured embryonic-like stem cells (staining score, Table 2); type: cell-based, human; design: key to SMC-specific Myosin HC / GFAP / CD34+ / CD45+: −: no staining; +/−: <20% staining; +: 20-50% staining; ++: 50-75% staining; +++: >75% staining; conditions: for CD34+ / CD45+ / GFAP / Nestin / SMC-specific Myosin HC: placental conditioned media, fourteen days of culture
Method: The following experiments evaluated the effects of Thalomid™, Actimid™ and Revimid™ on the morphological differentiation of embryonic-like stem cells derived from placenta. The morphological differentiation of cultured embryonic-like stem cells was evaluated after fourteen days of culture in the presence of placental conditioned medium and with DMSO (control), EGCF, Thalomid™, Actimid™ or Revimid™.
(§1) Embryonic-like stem cells were isolated from placenta as described above in Section 5.4. The embryonic-like stem cells were cultured using the culture conditions described above.
(§2) The cells were scored for the expression of CD34 (a marker of early hematopoietic progenitor cells; also an endothelial cell marker), CD45 (a marker of all hematopoietic cells except erythrocytes), CD105 (a marker of proliferating endothelial cells), smooth muscle cell (SMC)-specific myosin heavy chain, nestin ([…]), and glial fibrillary acidic protein (GFAP). Ratios of CD34 cells/TNC (Total Number of Cells), CD45 cells/TNC and CD105 cells/TNC were also determined.
In Table 2, the scoring was as follows: • −: no staining; +/−: <20% staining+: 20-50% staining; ++: 50-75% staining; +++: >75% staining.

[2] = tested on: embryonic-like stem cells derived from placenta; assay: Immunostaining for CD34, CD45 and CD105 in cultured placental stem cells (ratios to TNC, Table 3); type: cell-based, human; conditions: for CD34/TNC / CD45/TNC / CD105/TNC: placental conditioned media, 14 days in culture
Method: as §2
In another experiment, the results of which are summarized in Table 3, embryonic-like stem cells derived from placenta were cultured, using the conditions described in the umbilical vessel ring assay described above, in the presence of placenta-conditioned medium with DMSO (negative control), Thalomid™, Actimid™ or Revimid™. After 14 days in culture, the cells were then immunostained for expression of CD34+, CD45+ and CD 105+.

[3] = tested on: rat aortic rings; assay: Rat aortic angiogenesis assay; type: cell-based, Sprague Dawley rats
Method: Twelve well tissue culture grade plates were covered with 250 μl of Matrigel and allowed to gel for 30-45 min at 370 C, 5% Co2. Thoracic aortas were excised from eight to ten week old male Sprague Dawley rats and the fibroadipose tissue was removed. The aortas were sectioned into 1 mm long sections, rinsed eight times with EGM-2 (Clonetics Corp), placed on the Matrigel coated wells, covered with additional 250 μl Matrigel, and allowed to gel for 30-45 min at 370 C. The rings were cultured for 24 hours in 2 ml of EGM-2. After 24 hours, recombinant murine endostatin was reconstituted in EBM and added as a single treatment on day 1. Thalidomide was added at different concentrations (1 μg/ml, 5 μg/ml, 10 μg/ml, 50 μg/ml and 100 μg/ml) in the presence or absence of rabbit microsomes as noted in the Table 5. Aortic rings were photographed on days.

[4] = tested on: umbilical vessel explant / cultured cells; assay: Umbilical vessel ring assays, photomicrographs of cultured cells (FIGS. 1-3); type: cell-based, human
Method: FIGS. 1(A-D). Photomicrographs of cultured cells in umbilical vessel ring assays as described in Section 6.2. A. Positive control. The explant was cultured in media+EGCF 200 μg/ml. […] B. Negative control. The explant was cultured in placental conditioned media+supplement. In the absence of EGCF, fewer cells migrated from the explant than in the positive control (A). C. Treatment Group 3. The explant was cultured in placental conditioned media+EGCF 200 μg/ml+Thalomid™ 100 μg/ml. […] D. Treatment Group 2. The explant was cultured in placental conditioned media+EGCF 200 μg/ml+Thalomid™ 10 μg/ml.
FIGS. 2(A-C). Photomicrographs of cultured cells in umbilical vessel ring assays as described in Section 6.2. A. Control. Cells were cultured in placental conditioned media+ECGF 200 μg/ml+DMSO 1 μg/ml. B. Cells were cultured in placental conditioned media+ECGF 200 μg/ml+DMSO 1 μg/ml+Thalomid™ 1 μg/ml. […]. Cells were cultured in placental conditioned media+ECGF 200 μg/ml+DMSO 1 μg/ml+Thalomid™ 10 μg/ml.
FIGS. 3(A-B). Photomicrographs of cultured cells in umbilical vessel ring assays as described in Section 6. A. Control. Cells were cultured in placental conditioned media+DMSO. […] B. Cells were cultured in placental conditioned media+DMSO+Thalomid™.
as §1

## O=C1CCC(N2C(=O)c3ccccc3C2=O)C(=O)N1 (centres unmarked) [Thalomid, thalidomide, reference compound]
[1]; 10 μg/mL
  CD34+: +/− (<20% staining)
  CD45+: + (20-50% staining)
  GFAP: −
  Nestin: + (20-50% staining)
  SMC-specific Myosin HC: −
[1]; 100 μg/mL
  CD34+: −
  CD45+: + (20-50% staining)
  GFAP: + (20-50% staining)
  Nestin: + (20-50% staining)
  SMC-specific Myosin HC: −
[1]; summary of Table 2
  numbers of cells expressing CD34, CD45 and smooth muscle cell (SMC)-specific myosin heavy chain: decreased
  numbers of cells expressing nestin and glial fibrillary acidic protein (GFAP): increased
[2]; 10 μg/ml
  CD34/TNC: 0.64
  CD45/TNC: 3.87
  CD105/TNC: 6.8
[2]; 100 μg/ml
  CD34/TNC: 0.38
  CD45/TNC: 4.21
  CD105/TNC: 7.0
[2]; summary of Table 3
  numbers of cells expressing CD34, CD45 and CD 105: decrease
[3]; 10 μg/ml, + Rabbit microsomes
  mean microvessel growth (% of control): 16.6 % of control
[3]; 10 μg/ml, without microsomes
  mean microvessel growth (% of control): 60 % of control
[3]; 50 μg/ml, + Rabbit microsomes
  mean microvessel growth (% of control): 17.6 % of control
[3]; 50 μg/ml, without microsomes
  mean microvessel growth (% of control): 82 % of control
[3]; summary of Table 5
  need of rabbit microsomes for inhibition of vessel formation: requires the addition of rabbit microsome in order to show efficient inhibition of vessel formation
[4]; placental conditioned media + DMSO (FIG. 3)
  cell phenotype (branching / non-branching): More cells exhibit a branching (e.g., neuronal) phenotype than in the control
[4]; placental conditioned media + ECGF 200 μg/ml + DMSO 1 μg/ml + 1 μg/ml (FIG. 2)
  number of cells seen: Fewer cells are seen than in the control
[4]; placental conditioned media + ECGF 200 μg/ml + DMSO 1 μg/ml + 10 μg/ml (FIG. 2)
  number of cells seen: Fewer cells are seen than in the control (A) or in (B)
[4]; placental conditioned media + EGCF 200 μg/ml + 10 μg/ml (FIG. 1D)
  cell migration from the explant and outgrowth: cells migrated a shorter distance from the explant and they exhibited less dense outgrowth than in the positive control
[4]; placental conditioned media + EGCF 200 μg/ml + 100 μg/ml (FIG. 1C)
  cell migration from the explant: cells migrated a shorter distance from the explant than in the positive control
